From patent publication US4399139A, “5,6-Dihydro-11-alkylene-morphanthridin-6-ones, their pharmaceutical compositions and method of use” (BASF Aktiengesellschaft, priority 1981, dated 1983) come the findings set out here.

Where only a bound is given, the exact number is not on record here.

A short description of data set [1]: Anti-cholinergic side-effect: inhibition of carbachol-stimulated salivation in the rat. On the set-up: species or system Sprague-Dawley rats. The following applies: in vivo, sc; for ED50 at 1 h: administered subcutaneously, carbachol 0.6 mg/kg intraperitoneally after 1 hour, read-out: Salivation-inhibiting action, ED 50; for selectivity ratio: subcutaneously, ratio of salivation-inhibiting to secretion-inhibiting dose, read-out: Salivation-inhibiting action, ED 50/ED 0.75. As for the experimental part:
(§1) After 1 hour, the pupil diameter is measured. The animals are then given 0.6 mg/kg of carbachol intraperitoneally. After 5 minutes, the saliva secreted as a result of stimulation by carbachol is blotted up with 4 cm wide strips of universal indicator paper (from Merck). The surface area of the paper colored blue by the alkaline saliva serves as a measure of the salivary secretion. The test substance is taken to inhibit salivary secretion if the blue area of the paper is more than 50% smaller than in the case of the controls. Evaluation of the linear relationships between the logarithms of the dose and the frequency of inhibition of salivation is carried out alternatively by Probit analysis.

In a further data set the test system is pupil diameter. Briefly: Anti-cholinergic side-effect: mydriasis (pupil diameter) in the rat. The note with it: administered subcutaneously, 1 hour, dose which increases the pupil diameter by 2 mm. It counts as in vivo, Sprague-Dawley rats. The procedure:
as §1, with “To determine anti-cholinergic side-effects (mydriasis, inhibition of salivation), groups of from 5 to 10 female Sprague-Dawley rats (160-200 g) are given the test substance subcutaneously. After 1” for “After 1”, “Probit analysis. The ED 50 is taken to be the dose at which the relative frequency of inhibition of salivation is 50%.” for “Probit analysis.”
(§2) If there is a mydriatic effect, there is a linear regression between the logarithm of the dose and the increase in pupil diameter in mm, from which the ED 2 mm, ie. the dose which increases the pupil diameter by 2 mm, is calculated.

Experiment in data set [2]: as above
It counts as in vivo, Sprague-Dawley rats. The following applies: in vivo, sc, subcutaneously, ratio of mydriatic to secretion-inhibiting dose, read-out: Mydriatic action, ED 2 mm / ED 0.75. As for the experimental part: as §1, with “To determine anti-cholinergic side-effects (mydriasis, inhibition of salivation), groups of from 5 to 10 female Sprague-Dawley rats (160-200 g) are given the test substance subcutaneously. After 1” for “After 1”, “Probit analysis. The ED 50 is taken to be the dose at which the relative frequency of inhibition of salivation is 50%.” for “Probit analysis.”
as §2

The next data set deals with ulcerous lesions. As to the kind of experiment: Anti-ulcerogenic effect in the rat (reserpine/indomethacin/cold induced ulcers). It counts as in vivo, Sprague-Dawley rats. The note with it: for Anti-ulcerogenic effect, R.E. (relative effectiveness): orally, relative to pirenzepine = 1.0; for ED50: po, 6 h, administered orally, dose which reduces the ulcerated surface area by 50%, read-out: Anti-ulcerogenic effect, ED 50%. As for the experimental part: To examine the anti-ulcerogenic effect, groups of 10 female Sprague-Dawley rats (weighing 160-180 g) are given 1 mg/kg of reserpine intraperitoneally, and are then left for 18 hours without food (but with water ad libitum). After this time, the animals are given 21.5 mg/kg of indomethacin intraperitoneally and the test substance orally; they are then kept for 6 hours at 8° C., after which they are killed. The stomachs are removed and the surface area of ulcerous lesions is determined.

The test system of the next data set is gastric acid secretion. The following applies: for ED (pH increase of 0.75): Rattus norvegicus, sc, 1 h, read-out: Inhibition of gastric acid secretion, ED 0.75; for Inhibition of gastric acid secretion, R.E. (relative effectiveness): rat, subcutaneously, relative to pirenzepine = 1.0.

Method for gastric acid secretion: The inhibition of gastric acid secretion manifests itself in a rise in the pH of the gastric mucosa. It is tested on groups of 5 conscious female Sprague-Dawley rats (160-180 g). The animals are kept without food (but with water ad libitum) for 48 hours and are then pretreated with varying doses of the test substances, administered subcutaneously. After 1 hour, they are narcotized with Na hexobarbital (46.4 mg/kg, given intravenously). A pH electrode (Philips Special Electrode, type CJP) is then introduced into the stomach and the pH at the surface of the gastric mucosa is measured (pH in the untreated animals is 1.40±0.02; N=200). The ED 0.75, ie. the dose which causes an increase in pH averaging 0.75, compared to the pH in the untreated control animals, is determined from the linear regression between logarithm of administered dose and increase in pH.

As to `CN1CCN(C(=O)C=C2c3ccccc3NC(=O)c3ccccc32)CC1` (mixture of isomers) [Example 1 cis/trans, cis,trans-11-(4-methyl-piperazin-1-yl)-carboxamidomethylene-5,6-dihydromorphanthridin-6-one], in data set [1], the ED50 at 1 h was 99 mg/kg and the selectivity ratio came out at 1800. Further, the “Mydriatic action, ED 2 mm” value in the data set with pupil diameter is on record as more than 215 mg/kg. The selectivity ratio in data set [2] is more than 3900. In the data set on ulcerous lesions, the “Anti-ulcerogenic effect, R.E. (relative effectiveness)” value was 3.1 and the ED50 amounted to 2.1 mg/kg. Further, in the data set on gastric acid secretion, the ED (pH increase of 0.75) was 0.055 mg/kg and the “Inhibition of gastric acid secretion, R.E. (relative effectiveness)” value was more than 1.6.
As to `CN1CCN(C(=O)/C=C2/c3ccccc3NC(=O)c3ccccc32)CC1` [Example 1 cis, cis-11-(4-methyl-piperazin-1-yl)-carboxamidomethylene-5,6-dihydro-morphanthridin-6-one], in data set [1], the ED50 at 1 h was found to be 50 mg/kg and the selectivity ratio was 1600. For the same molecule, the “Mydriatic action, ED 2 mm” value with pupil diameter came to 198 mg/kg. In data set [2], the selectivity ratio is 6200. For the same molecule, in the data set on ulcerous lesions, the “Anti-ulcerogenic effect, R.E. (relative effectiveness)” value was determined as 3.8 and the ED50 is 1.7 mg/kg. Also, in the data set with gastric acid secretion, the ED (pH increase of 0.75) came out at 0.032 mg/kg and the “Inhibition of gastric acid secretion, R.E. (relative effectiveness)” value was found to be 2.7.
Consider `CN1CCN(CC(=O)N2c3ccccc3C(=O)Nc3cccnc32)CC1` [Pirenzepine, 5,11-dihydro-11-[(4-methyl-piperazin-1-yl)-acethyl]-6H-pyrido-[2,3,b][1,4]-benzodiazepin-6-one, reference compound], for which the ED50 at 1 h in data set [1] stood at 2 mg/kg. Further, in the data set with pupil diameter, the “Mydriatic action, ED 2 mm” value was determined as 1.6 mg/kg. Moreover, in the data set on ulcerous lesions, the ED50 is 6.5 mg/kg. For the same molecule, the ED (pH increase of 0.75) with gastric acid secretion was 0.086 mg/kg.
